Measurements published in publication PMC8908507 (ACS Omega, 2022).
Entries after “also recorded” stand apart in the source; their conditions may differ.

Key:
MAO-B [1] = biological target: T1, MAO-B (Homo sapiens, UniProt P27338); assay: MAO-B inhibition, recombinant enzyme, benzylamine substrate; type: biochemical; details: for SI (MAO-B compared with MAO-A): IC50 (MAO-A)/IC50 (MAO-B); for IC50: IC50 MAO-B; for remaining activity at 1 µM: read-out: residual activity (%) MAO-B
T1 sequence (P27338 1-520): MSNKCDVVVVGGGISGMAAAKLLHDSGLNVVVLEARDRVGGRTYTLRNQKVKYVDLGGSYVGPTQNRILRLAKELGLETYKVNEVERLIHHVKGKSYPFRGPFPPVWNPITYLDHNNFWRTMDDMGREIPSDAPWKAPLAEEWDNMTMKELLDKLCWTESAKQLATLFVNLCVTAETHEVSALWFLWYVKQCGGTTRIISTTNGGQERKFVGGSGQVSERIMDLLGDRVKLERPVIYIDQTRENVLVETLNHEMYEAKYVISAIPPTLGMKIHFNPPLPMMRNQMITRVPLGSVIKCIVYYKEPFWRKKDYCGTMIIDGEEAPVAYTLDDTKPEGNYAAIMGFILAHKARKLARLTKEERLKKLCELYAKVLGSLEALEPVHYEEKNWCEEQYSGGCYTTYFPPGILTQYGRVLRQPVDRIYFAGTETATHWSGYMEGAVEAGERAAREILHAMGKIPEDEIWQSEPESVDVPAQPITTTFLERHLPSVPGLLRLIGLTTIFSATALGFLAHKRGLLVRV

BChE = BChE (Equus caballus, UniProt P81908); details: 10 μM
MAO-A = biological target: T2, MAO-A (Homo sapiens, UniProt P21397); assay: biochemical; details: for remaining activity at 10 µM: read-out: residual activity (%) MAO-A
T2 sequence (P21397 1-527): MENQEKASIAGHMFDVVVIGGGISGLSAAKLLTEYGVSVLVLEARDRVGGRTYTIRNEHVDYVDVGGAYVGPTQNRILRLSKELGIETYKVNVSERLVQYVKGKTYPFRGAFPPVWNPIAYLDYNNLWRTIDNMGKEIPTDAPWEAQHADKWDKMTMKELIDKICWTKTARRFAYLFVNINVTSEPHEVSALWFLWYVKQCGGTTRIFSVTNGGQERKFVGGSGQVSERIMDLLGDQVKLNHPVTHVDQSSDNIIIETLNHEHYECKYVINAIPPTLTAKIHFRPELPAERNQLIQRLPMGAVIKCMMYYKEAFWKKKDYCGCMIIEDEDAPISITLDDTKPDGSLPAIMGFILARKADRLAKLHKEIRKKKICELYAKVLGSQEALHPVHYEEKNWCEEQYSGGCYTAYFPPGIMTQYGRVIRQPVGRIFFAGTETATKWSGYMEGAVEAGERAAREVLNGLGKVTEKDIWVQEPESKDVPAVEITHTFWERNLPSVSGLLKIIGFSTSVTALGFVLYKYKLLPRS

BACE1 = BACE1 (Homo sapiens, UniProt P56817); assay: biochemical; details: read-out: residual activity (%) BACE1
AChE = AChE (Electrophorus electricus, UniProt O42275); assay: AChE inhibition; details: 10 μM
Vero cells [2] = assay: Intracellular ROS assay in H2O2-treated Vero cells; type: cell-based, African green monkey; details: 24 h drug treatment, vs H2O2-treated control
Vero cells [3] = assay: Cytotoxicity on Vero cells, MTT method; type: cell-based, African green monkey; details: 100 μg/mL, 24 h
[4] = Cytotoxicity on Vero cells, MTT method; type: cell-based, African green monkey; details: African green monkey, Vero cells (normal kidney epithelial cell line)
MAO-B [5] = biological target: T1, MAO-B; assay: Reversibility of MAO-B inhibition by dialysis; type: biochemical
MAO-B [6] = details: cited from earlier work

AChE, sequence (O42275 24-633): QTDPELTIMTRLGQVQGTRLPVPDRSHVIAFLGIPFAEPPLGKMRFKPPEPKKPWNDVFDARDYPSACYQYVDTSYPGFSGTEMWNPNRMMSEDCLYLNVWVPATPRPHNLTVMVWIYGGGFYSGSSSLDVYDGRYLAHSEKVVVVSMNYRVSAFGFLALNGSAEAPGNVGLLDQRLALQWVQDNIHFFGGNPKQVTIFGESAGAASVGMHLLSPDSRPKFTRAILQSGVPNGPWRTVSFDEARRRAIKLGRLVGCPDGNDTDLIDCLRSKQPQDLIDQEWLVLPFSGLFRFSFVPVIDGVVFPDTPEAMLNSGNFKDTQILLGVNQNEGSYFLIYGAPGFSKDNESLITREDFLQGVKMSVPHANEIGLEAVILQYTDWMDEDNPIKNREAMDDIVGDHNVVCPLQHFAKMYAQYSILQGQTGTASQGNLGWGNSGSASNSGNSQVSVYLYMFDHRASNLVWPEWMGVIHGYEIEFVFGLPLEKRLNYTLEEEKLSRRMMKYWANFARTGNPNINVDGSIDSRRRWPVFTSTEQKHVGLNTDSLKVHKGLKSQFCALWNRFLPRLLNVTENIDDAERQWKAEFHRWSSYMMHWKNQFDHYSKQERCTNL
BACE1, sequence (P56817 46-501): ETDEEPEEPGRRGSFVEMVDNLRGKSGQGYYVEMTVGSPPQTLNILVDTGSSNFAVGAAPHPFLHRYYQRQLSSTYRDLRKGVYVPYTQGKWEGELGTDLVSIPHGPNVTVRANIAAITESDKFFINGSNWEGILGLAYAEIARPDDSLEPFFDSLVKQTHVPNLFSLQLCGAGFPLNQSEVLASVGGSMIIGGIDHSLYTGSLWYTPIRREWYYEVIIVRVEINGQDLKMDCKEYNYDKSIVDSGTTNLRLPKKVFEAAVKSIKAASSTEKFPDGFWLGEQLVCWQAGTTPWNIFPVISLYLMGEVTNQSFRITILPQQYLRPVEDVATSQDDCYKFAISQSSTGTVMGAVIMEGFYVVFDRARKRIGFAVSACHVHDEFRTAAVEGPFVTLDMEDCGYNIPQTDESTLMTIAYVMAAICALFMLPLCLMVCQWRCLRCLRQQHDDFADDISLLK
BChE, sequence (P81908 whole entry): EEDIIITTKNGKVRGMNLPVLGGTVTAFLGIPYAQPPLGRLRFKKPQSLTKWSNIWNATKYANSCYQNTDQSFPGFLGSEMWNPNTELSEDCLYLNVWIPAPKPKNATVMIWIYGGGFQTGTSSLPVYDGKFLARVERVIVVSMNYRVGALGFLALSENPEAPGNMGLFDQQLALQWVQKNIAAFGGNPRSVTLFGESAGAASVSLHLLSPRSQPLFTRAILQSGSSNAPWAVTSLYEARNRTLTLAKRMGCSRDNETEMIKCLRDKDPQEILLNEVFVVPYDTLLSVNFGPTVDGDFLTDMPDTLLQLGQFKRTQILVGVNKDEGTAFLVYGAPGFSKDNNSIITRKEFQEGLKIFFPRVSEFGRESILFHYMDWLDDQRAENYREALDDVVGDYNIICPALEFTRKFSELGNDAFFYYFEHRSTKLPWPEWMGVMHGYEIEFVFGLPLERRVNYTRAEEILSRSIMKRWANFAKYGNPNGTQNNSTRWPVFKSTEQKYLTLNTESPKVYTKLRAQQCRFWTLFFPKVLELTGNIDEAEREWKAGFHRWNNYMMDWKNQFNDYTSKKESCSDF

SMILES	SI (MAO-B compared with MAO-A) (MAO-B [1])	IC50 (MAO-B [1]) [nM]	remaining activity at 1 µM (MAO-B [1]) [%]	residual activity (%) BChE (BChE) [%]	IC50 (MAO-A) [nM]	remaining activity at 10 µM (MAO-A) [%]	remaining activity at 10 µM (BACE1) [%]	residual activity (%) AChE (AChE) [%]	intracellular ROS scavenging (Vero cells [2])	toxicity by cellular morphology, phase-contrast microscopy (Vero cells [3])	viability at 24 h, 80 μg/mL [4] [%]	relative MAO-B activity, dialyzed (AD) (MAO-B [5]; MK6/MK12 6.0 nM, lazabemide 0.22 μM, pargyline 0.28 μM, after dialysis) [%]	relative MAO-B activity, undialyzed (AU) (MAO-B [5]; MK6/MK12 6.0 nM, lazabemide 0.22 μM, pargyline 0.28 μM, preincubation 30 min) [%]	reversibility of MAO-B inhibition (MAO-B [5]; dialysis)	viability at 24 h, 60 μg/mL [4] [%]	SI value (MAO-B [6])	IC50 (MAO-B [6]; read-out: IC50 MAO-B) [nM]	Ki (MAO-B [6]; read-out: Ki MAO-B) [nM]
O=C(/C=C/C=C/c1ccccc1)c1ccc(Cl)cc1 [MK1, (2E,4E)-1-(4-Chlorophenyl)-5-phenylpenta-2,4-dien-1-one]	1498.2	11.2 ± 1.65	2.17 ± 1.49	94.1 ± 4.72	16700 ± 400	83 ± 2.71	77.1 ± 0.0087	84.0 ± 0.23	–	–	–	–	–	–	–	–	–	–
O=C(/C=C/C=C/c1ccc(Br)cc1)c1ccc(Cl)cc1 [MK2, (2E,4E)-5-(4-Bromophenyl)-1-(4-chlorophenyl)penta-2,4-dien-1-one]	232.4	101 ± 1.63	14.3 ± 0.43	95.4 ± 2.86	23500 ± 860	97.8 ± 0.16	81.4 ± 0.97	82.4 ± 0.98	–	–	–	–	–	–	–	–	–	–
COc1ccc(/C=C/C=C/C(=O)c2ccc(Cl)cc2)cc1 [MK3, (2E,4E)-1-(4-Chlorophenyl)-5-(4-methoxyphenyl)penta-2,4-dien-1-one]	1290.2	13.1 ± 0.81	5.81 ± 0.27	83.2 ± 0.46	16900 ± 500	73.6 ± 2.83	84.8 ± 0.53	81.4 ± 1.06	–	–	–	–	–	–	–	–	–	–
O=C(/C=C/C=C/c1ccc(F)cc1)c1ccc(Cl)cc1 [MK4, (2E,4E)-1-(4-Chlorophenyl)-5-(4-fluorophenyl)penta-2,4-dien-1-one]	1609.8	9.67 ± 0.47	1.61 ± 2.28	94.9 ± 7.16	15600 ± 630	77 ± 6.2	72.5 ± 0.9	90.7 ± 0.57	–	–	–	–	–	–	–	–	–	–
O=C(/C=C/C=C/c1ccc([N+](=O)[O-])cc1)c1ccc(Cl)cc1 [MK5, (2E,4E)-1-(4-Chlorophenyl)-5-(4-nitrophenyl)penta-2,4-dien-1-one]	4783.0	4.02 ± 0.13	5.81 ± 0.27	71.6 ± 1.05	19200 ± 940	72.9 ± 0.44	73.3 ± 2.51	74.1 ± 1.42	significant scavenging effect of reactive oxygen species; also recorded: significant ROS scavenging effect	no signs of toxicity	–	–	–	–	–	–	–	–
O=C(/C=C/C=C/c1ccccc1)c1ccc(Br)cc1 [MK6, (2E,4E)-1-(4-Bromophenyl)-5-phenylpenta-2,4-dien-1-one]	–	–	–	97.5 ± 3.58	20600 ± 1020	84 ± 1.22	74.1 ± 1.48	74.7 ± 0.66	significant scavenging effect of reactive oxygen species; also recorded: significant ROS scavenging effect	no signs of toxicity	> 70	79.2	34.9	reversible inhibitors	–	–	–	–
O=C(/C=C/C=C/c1ccc(Br)cc1)c1ccc(Br)cc1 [MK7, (2E,4E)-1,5-Bis(4-bromophenyl)penta-2,4-dien-1-one]	1400.0	15.5 ± 0.06	8.9 ± 0.15	99.2 ± 1.09	21700 ± 2010	85.4 ± 1.99	84.5 ± 0.91	75.8 ± 0.73	–	–	–	–	–	–	–	–	–	–
COc1ccc(/C=C/C=C/C(=O)c2ccc(Br)cc2)cc1 [MK8, (2E,4E)-1-(4-Bromophenyl)-5-(4-methoxyphenyl)penta-2,4-dien-1-one]	1443.8	16.7 ± 0.62	7.85 ± 0.22	80.7 ± 7.70	24100 ± 38	69.6 ± 2.03	80.9 ± 1.67	86.1 ± 5.10	–	–	–	–	–	–	–	–	–	–
O=C(/C=C/C=C/c1ccc(F)cc1)c1ccc(Br)cc1 [MK9, (2E,4E)-1-(4-Bromophenyl)-5-(4-fluorophenyl)penta-2,4-dien-1-one]	1671.7	13.5 ± 1.06	2.6 ± 0.57	87.4 ± 6.95	22500 ± 47	74.9 ± 1.29	65 ± 1.61	57.7 ± 0.00	–	–	–	–	–	–	–	–	–	–
O=C(/C=C/C=C/c1ccc([N+](=O)[O-])cc1)c1ccc(Br)cc1 [MK10, (2E,4E)-1-(4-Bromophenyl)-5-(4-nitrophenyl)penta-2,4-dien-1-one]	481.0	40.6 ± 0.87	3.4 ± 0.14	87.9 ± 1.86	19500 ± 590	69.1 ± 1.32	69.4 ± 1.03	84.0 ± 0.73	–	–	–	–	–	–	–	–	–	–
O=C(/C=C/C=C/c1ccc(Br)cc1)c1ccc(F)cc1 [MK11, (2E,4E)-5-(4-Bromophenyl)-1-(4-fluorophenyl)penta-2,4-dien-1-one]	1394.7	19.8 ± 0.53	3.45 ± 0.21	89.2 ± 6.58	27500 ± 820	76.9 ± 3.02	71.4 ± 1.03	77.8 ± 2.19	–	–	–	–	–	–	–	–	–	–
O=C(/C=C/C=C/c1ccc([N+](=O)[O-])cc1)c1ccc(F)cc1 [MK13, (2E,4E)-1-(4-Fluorophenyl)-5-(4-nitrophenyl)penta-2,4-dien-1-one]	5635.2	4.24 ± 0.13	1.95 ± 0.067	97.8 ± 1.55	23700 ± 170	71.5 ± 8.06	76.7 ± 0.64	91.5 ± 0.80	–	–	–	–	–	–	–	–	–	–
COc1ccc(/C=C/C=C/C(=O)c2ccccc2)cc1 [MK14, (2E,4E)-5-(4-Methoxyphenyl)-1-phenylpenta-2,4-dien-1-one]	3871.5	4.89 ± 0.17	-0.95	89.0 ± 1.55	18900 ± 1020	61.4 ± 6.27	77.3 ± 1.23	84.7 ± 5.62	significant scavenging effect of reactive oxygen species; also recorded: significant ROS scavenging effect	no signs of toxicity	–	–	–	–	> 80	–	–	–
O=C(/C=C/C=C/c1ccc([N+](=O)[O-])cc1)c1ccccc1 [MK15, (2E,4E)-5-(4-Nitrophenyl)-1-phenylpenta-2,4-dien-1-one]	1025.8	12.4 ± 7.92	-3.52	80.2 ± 1.55	12700 ± 570	54.4 ± 5.37	89.5 ± 0.92	68.8 ± 0.80	–	–	–	–	–	–	–	–	–	–
O=C(C=CC=Cc1ccccc1)c1ccc(N2CCOCC2)cc1 [MO10, 1-[4-(morpholin-4-yl)phenyl]-5-phenylpenta-2,4-dien-1-one]	–	–	–	–	–	–	–	–	–	–	–	–	–	–	–	366.13	44	8 ± 3
